# What was measured:
# adult TTFs = test: q-PCR of marker transcripts in retrovirally reprogrammed adult TTFs; format: cell-based, mouse; conditions: ZNF281 added to 5F, versus 5F
# Protocol: Retroviruses production, cellular reprogramming and treatment. For retroviruses production, Platinum E cells were seeded into culture dishes (1×10^5 cells/cm2) one day before transfection in DMEM supplemented with 10% FBS and 1% penicillin/streptomycin. Cells reached ˜80% confluency on the day of transfection. DNA plasmids were transfected into Platinum E cells using FuGENE 6 transfection reagent. Twenty-four hours after transfection, wild type or αMHC-GFP tail-tip fibroblasts were seeded into culture dishes or plates that were precoated with SureCoat (Cellutron) for one hour at a density of 6×10^4/cm^2. Forty-eight hours after transfection, polybrene was added to viral medium that was filtered through a 0.45-μm filter at a concentration of […]. The mixture replaced the growth medium in the cell culture plate with tail-tip fibroblasts. The viral infection was serially repeated twice. Twenty-four hours after the second infection, the viral medium was replaced with induction medium, composed of DMEM/199 (4:1), 10% conditioned medium obtained from neonatal rat cardiomyocyte culture, 10% FBS, 5% horse serum, 1% penicillin/streptomycin, 1% nonessential amino acids, 1% essential amino acids, 1% B-27, 1% insulin-selenium-transferrin, 1% vitamin mixture, and 1% sodium pyruvate (Invitrogen). Small molecule treatments were used throughout the reprogramming process […] (Sigma).
# Quantitative mRNA measurement. Total RNA was extracted using TRIzol (Invitrogen) according vender's protocol. RNAs were retrotranscribed to cDNA using iScript Supermix (Bio-Rad). qPCR was performed using Kapa Sybr Fast (Kapa Biosystems). mRNA levels were normalized by comparison to Gapdh mRNA.
# (§1) ZNF281 enhances cardiac reprogramming of adult fibroblasts. PHF7 and ZNF281 were the two strongest activators identified from retroviral cDNA expression screen with 5F (FIG. 1D; Table S2). PHF7 is only expressed in the male germ line (Yang et al., 2012), whereas ZNF281 has a broad expression pattern with enriched expression in the heart (FIG. 51). The inventors therefore focused their initial attention on ZNF281 and explored its ability to enhance the activity of 5F. They refer to the reprogramming mix of 5F plus ZNF281 as 6F. […] The addition of ZNF281 to 5F increased the expression of GFP and cTnT in αMHC-GFP CFs evaluated by immunocytochemistry after 7 days of reprogramming (FIG. 10A). […]
# Co-repression of inflammatory genes by ZNF281 and NuRD complex components. […] Addition of NuRD complex subunits also promoted cardiac reprogramming, as measured by flow cytometry using the cardiac markers αMHC-GFP and cTnT (FIG. 5B, FIGS. S2A-B).
# [1] = system: αMHC-GFP adult cardiac fibroblasts (CF); test: Flow cytometry (FACS) of αMHC-GFP+ and cTnT+ adult cardiac fibroblasts after reprogramming; format: cell-based, mouse; conditions: ZNF281 added to 5F, adult CFs, 7 days
# Protocol: Flow Cytometry. For flow Cytometry, cells were trypsinized and fixed with fixation buffer (BD Bioscience) for 15 min on ice. Fixed cells were washed with Perm/Wash buffer (BD Bioscience) for three times. Washed cells were incubated with mouse monoclonal anti-cardiac Troponin T (cTnT) antibody (Thermo Scientific) at 1:200 dilution and Rabbit anti-GFP antibody (Thermo Scientific) at 1:200 dilution in Perm/Wash buffer for 1 hr on ice. Cells then were washed with Perm/Wash buffer for three times followed by incubation with donkey anti-mouse Alexa fluor 647 (Invitrogen) at 1:200 and goat anti-rabbit Alexa fluor 488 at 1:200 (Invitrogen). Cells were washed with Perm/Wash buffer, and then analyzed using FACS Caliber (BD Sciences) and FlowJo software.
# as §1, with “6F. The inventors validated the results of their screen by assessing GFP and cTnT expression in αMHC-GFP TTFs following 5F and 6F reprogramming after 7 days (FIG. 3A). […] This TTF reprogramming efficiency using 6F is noteworthy when considering the relatively low statistical likelihood of each fibroblast taking up all five or six separate retroviruses encoding the reprogramming factors. The inventors also examined the expression of cardiac and fibroblast transcripts by q-PCR.” for “6F.”
# [2] = system: adult cardiac fibroblasts (CF); test: Beating cells after 4 weeks of reprogramming; format: cell-based, mouse; conditions: ZNF281 in presence of 5F
# From the text: as §1, with “6F. The inventors validated the results of their screen by assessing GFP and cTnT expression in αMHC-GFP TTFs following 5F and 6F reprogramming after 7 days (FIG. 3A). […] This TTF reprogramming efficiency using 6F is noteworthy when considering the relatively low statistical likelihood of each fibroblast taking up all five or six separate retroviruses encoding the reprogramming factors. The inventors also examined the expression of cardiac and fibroblast transcripts by q-PCR.” for “6F.”
# Myc-tagged GATA4 = target: T1, Myc-tagged GATA4 (Homo sapiens, UniProt P43694); test: Co-immunoprecipitation in transfected HEK293 cells; format: binding
# T1 construct: expressed in transfected cells; host or cells: HEK293
# T1 sequence (P43694 whole entry): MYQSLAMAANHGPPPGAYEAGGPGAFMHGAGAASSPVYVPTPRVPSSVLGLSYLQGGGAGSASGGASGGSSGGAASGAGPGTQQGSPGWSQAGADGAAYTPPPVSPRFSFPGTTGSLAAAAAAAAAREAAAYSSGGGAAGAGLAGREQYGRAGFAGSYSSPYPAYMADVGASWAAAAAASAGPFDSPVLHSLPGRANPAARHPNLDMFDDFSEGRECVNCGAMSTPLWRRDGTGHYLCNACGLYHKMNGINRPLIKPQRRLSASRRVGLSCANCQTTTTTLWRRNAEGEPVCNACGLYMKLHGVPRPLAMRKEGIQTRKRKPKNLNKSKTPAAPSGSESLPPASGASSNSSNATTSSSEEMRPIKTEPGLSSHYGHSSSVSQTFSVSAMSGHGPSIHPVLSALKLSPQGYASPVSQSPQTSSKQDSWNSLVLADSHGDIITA
# Protocol: (§2) Immunoprecipitation and Western Blot Analysis. Flag-epitope tag ZNF281 fusion protein were co-expressed with myc-epitope tag fusion GATA4, HAND2, MEF2C or TBX5 in HEK293 cells for 48 hours. Cell lysates were incubated overnight with 1 μg of mouse monoclonal anti-FLAG antibody (Sigma). The cell lysates were pulldown using magnetic Protein G Dynabeads (Invitrogen) and then the Flag-ZNF281 was eluted using 0.5 mg/ml of free Flag peptide (Sigma). The final elution and the input obtained before the immunoprecipitation was analyzed by SDS-PAGE western blot using a mouse monoclonal anti-Myc antibody (Novex) or mouse monoclonal anti-FLAG antibody (Sigma).
# (§3) ZNF281 is a GATA4 coactivator. Previous reports described the influence of ZNF281 on pluripotency, stemness and epithelial-mesenchymal transition (EMT) (Hahn and Hermeking, 2014). However, the potential involvement of ZNF281 in cardiac development has not been previously explored. To begin to define the molecular mechanism whereby ZNF281 enhances cardiac reprogramming, the inventors performed co-immunoprecipitation assays with ZNF281 and each reprogramming transcription factor in transfected HEK293 cells.
# [3] = system: Myc-tagged HAND2, MEF2c, or TBX5; test: Co-immunoprecipitation in transfected HEK293 cells; format: binding
# Protocol: as §2, §3
substance,measurement,setting,value
Zinc finger protein 281 [ZNF281],decrease of Col1a2 expression,adult TTFs,~30%
same,decrease of Sox9 expression,adult TTFs,~60%
same,increase of Actc1 expression,adult TTFs,~20 fold
same,increase of Myh6 expression,adult TTFs,~120 fold
same,cTnT+ iCMs,[1],~45%
same,αMHC-GFP+ iCMs,[1],~25%
same,αMHC-GFP+/cTnT+ iCMs,[1],~21%
same,increase in the number of beating cells,[2],2 fold
same,co-immunoprecipitation of FLAG-tagged ZNF281,Myc-tagged GATA4,co-immunoprecipitated
same,co-immunoprecipitation of FLAG-tagged ZNF281,[3],not with the other three factors

# Source: patent US20210180023A1, “CARDIAC REPAIR BY REPROGRAMMING OF ADULT CARDIAC FIBROBLASTS INTO CARDIOMYOCYTES” (The Board of Regents of the University of Texas System, priority 2017, published 2021)
